Data as given in the NIST ThermoML archive (doi:10.1021/acs.jced.7b00092).
Numbers after ± are expanded uncertainties.

Settings: Liquid, Frequency=8 MHz, Pulse-echo method

C[Si](C)(C)O[Si](C)(C)O[Si](C)(C)O[Si](C)(C)C [decamethyltetrasiloxane]
speed of sound (217.81 K, 2 kPa): 1232 ± 1.1 m/s
speed of sound (217.81 K, 1324 kPa): 1238.8 ± 1.1 m/s
speed of sound (217.85 K, 9419 kPa): 1278.4 ± 1.2 m/s
speed of sound (217.9 K, 19699 kPa): 1325.2 ± 1.2 m/s
speed of sound (217.99 K, 40255 kPa): 1409.2 ± 1.3 m/s
speed of sound (218.01 K, 60115 kPa): 1481.3 ± 1.3 m/s
speed of sound (218.09 K, 79712 kPa): 1545.9 ± 1.4 m/s
speed of sound (218.16 K, 98572 kPa): 1603 ± 1.5 m/s
speed of sound (218.24 K, 118233 kPa): 1658.4 ± 1.6 m/s
speed of sound (249.42 K, 119047 kPa): 1575.5 ± 1.5 m/s
speed of sound (249.53 K, 98950 kPa): 1515.2 ± 1.4 m/s
speed of sound (249.65 K, 80370 kPa): 1454.9 ± 1.3 m/s
speed of sound (249.74 K, 59554 kPa): 1380.8 ± 1.2 m/s
speed of sound (249.8 K, 19343 kPa): 1208.7 ± 1.1 m/s
speed of sound (249.8 K, 39384 kPa): 1300.3 ± 1.2 m/s
speed of sound (249.84 K, 1077 kPa): 1110.1 ± 1 m/s
speed of sound (249.84 K, 9240 kPa): 1156.2 ± 1.1 m/s
speed of sound (299.9 K, 16 kPa): 925.67 ± 0.86 m/s
speed of sound (299.92 K, 1080 kPa): 933.63 ± 0.87 m/s
speed of sound (299.94 K, 121 kPa): 926.31 ± 0.87 m/s
speed of sound (299.96 K, 958 kPa): 932.76 ± 0.88 m/s
speed of sound (299.98 K, 9659 kPa): 994.25 ± 0.92 m/s
speed of sound (300 K, 19671 kPa): 1056.3 ± 0.98 m/s
speed of sound (300 K, 60024 kPa): 1252.4 ± 1.1 m/s
speed of sound (300 K, 80266 kPa): 1331.2 ± 1.2 m/s
speed of sound (300 K, 99198 kPa): 1397.7 ± 1.3 m/s
speed of sound (300.01 K, 40202 kPa): 1164.3 ± 1.1 m/s
speed of sound (300.04 K, 119626 kPa): 1463.1 ± 1.4 m/s
speed of sound (349.87 K, 59744 kPa): 1145.5 ± 1.1 m/s
speed of sound (349.89 K, 9447 kPa): 851.51 ± 0.8 m/s
speed of sound (349.89 K, 99170 kPa): 1302.5 ± 1.2 m/s
speed of sound (349.89 K, 119296 kPa): 1370.8 ± 1.4 m/s
speed of sound (349.9 K, 19447 kPa): 925.37 ± 0.87 m/s
speed of sound (349.92 K, 80462 kPa): 1232.5 ± 1.1 m/s
speed of sound (349.93 K, 1369 kPa): 780.56 ± 0.74 m/s
speed of sound (349.93 K, 40092 kPa): 1049.2 ± 0.96 m/s
speed of sound (399.55 K, 120290 kPa): 1300.1 ± 1.3 m/s
speed of sound (399.6 K, 1077 kPa): 636.31 ± 0.64 m/s
speed of sound (399.6 K, 9691 kPa): 731.33 ± 0.7 m/s
speed of sound (399.67 K, 1234 kPa): 638.18 ± 0.64 m/s
speed of sound (399.67 K, 20055 kPa): 820.52 ± 0.8 m/s
speed of sound (399.69 K, 38533 kPa): 945.04 ± 0.88 m/s
speed of sound (399.69 K, 60934 kPa): 1064.3 ± 0.97 m/s
speed of sound (399.7 K, 81120 kPa): 1154.3 ± 1.1 m/s
speed of sound (399.7 K, 99014 kPa): 1224.6 ± 1.1 m/s
speed of sound (449.89 K, 9702 kPa): 623.33 ± 0.62 m/s
speed of sound (449.92 K, 19667 kPa): 723.35 ± 0.73 m/s
speed of sound (449.96 K, 40506 kPa): 876.94 ± 0.83 m/s
speed of sound (449.99 K, 59941 kPa): 986.94 ± 0.91 m/s
speed of sound (450.01 K, 80184 kPa): 1082.5 ± 1 m/s
speed of sound (450.03 K, 99670 kPa): 1162.7 ± 1.1 m/s
speed of sound (450.04 K, 119488 kPa): 1235.4 ± 1.3 m/s
speed of sound (450.05 K, 1060 kPa): 502.02 ± 0.54 m/s
speed of sound (499.61 K, 9979 kPa): 534.61 ± 0.56 m/s
speed of sound (499.67 K, 20291 kPa): 650.54 ± 0.68 m/s
speed of sound (499.69 K, 40057 kPa): 807.98 ± 0.78 m/s
speed of sound (499.72 K, 4164 kPa): 442.17 ± 0.49 m/s
speed of sound (499.72 K, 60022 kPa): 927.39 ± 0.86 m/s
speed of sound (499.75 K, 5168 kPa): 460.32 ± 0.51 m/s
speed of sound (499.75 K, 80169 kPa): 1026.5 ± 0.95 m/s
speed of sound (499.76 K, 1001 kPa): 371.6 ± 0.46 m/s
speed of sound (499.78 K, 3058 kPa): 420.07 ± 0.48 m/s
speed of sound (499.8 K, 99589 kPa): 1109 ± 1 m/s
speed of sound (499.82 K, 1926 kPa): 395 ± 0.47 m/s
speed of sound (499.89 K, 119374 kPa): 1183.6 ± 1.2 m/s

C[Si](C)(C)O[Si](C)(C)O[Si](C)(C)C [octamethyltrisiloxane]
speed of sound (299.61 K, 10196 kPa): 986.47 ± 1.2 m/s
speed of sound (299.62 K, 101 kPa): 911.32 ± 1.2 m/s
speed of sound (299.63 K, 502 kPa): 914.41 ± 1.2 m/s
speed of sound (299.64 K, 984 kPa): 918.29 ± 1.2 m/s
speed of sound (299.64 K, 1480 kPa): 922.14 ± 1.2 m/s
speed of sound (299.65 K, 2012 kPa): 926.38 ± 1.2 m/s
speed of sound (299.66 K, 3441 kPa): 937.36 ± 1.2 m/s
speed of sound (299.68 K, 20155 kPa): 1050.3 ± 1.2 m/s
speed of sound (299.69 K, 5923 kPa): 955.8 ± 1.2 m/s
speed of sound (299.71 K, 30179 kPa): 1107.3 ± 1.2 m/s
speed of sound (349.58 K, 3704 kPa): 781 ± 1.2 m/s
speed of sound (349.59 K, 2066 kPa): 764.64 ± 1.2 m/s
speed of sound (349.59 K, 10127 kPa): 839.26 ± 1.2 m/s
speed of sound (349.6 K, 1556 kPa): 759.34 ± 1.3 m/s
speed of sound (349.61 K, 6067 kPa): 803.25 ± 1.2 m/s
speed of sound (349.61 K, 20075 kPa): 915.62 ± 1.1 m/s
speed of sound (349.64 K, 29800 kPa): 980.01 ± 1.1 m/s
speed of sound (349.65 K, 1075 kPa): 754.2 ± 1.3 m/s
speed of sound (349.69 K, 558 kPa): 748.58 ± 1.3 m/s
speed of sound (349.91 K, 111 kPa): 742.97 ± 1.3 m/s
speed of sound (399.42 K, 29701 kPa): 873.39 ± 1.1 m/s
speed of sound (399.95 K, 2018 kPa): 610.77 ± 1.5 m/s
speed of sound (399.96 K, 508 kPa): 588.68 ± 1.4 m/s
speed of sound (399.96 K, 993 kPa): 595.83 ± 1.6 m/s
speed of sound (399.96 K, 1439 kPa): 602.33 ± 1.6 m/s
speed of sound (399.96 K, 3510 kPa): 630.8 ± 1.6 m/s
speed of sound (400.02 K, 9928 kPa): 704.99 ± 1.2 m/s
speed of sound (400.15 K, 19875 kPa): 796.17 ± 1.1 m/s
speed of sound (449.44 K, 23518 kPa): 734.5 ± 1.1 m/s
speed of sound (449.96 K, 1045 kPa): 448.89 ± 2.2 m/s
speed of sound (449.98 K, 1523 kPa): 458.69 ± 2.1 m/s
speed of sound (449.99 K, 492 kPa): 436.7 ± 2.3 m/s
speed of sound (450.01 K, 1994 kPa): 468.09 ± 2 m/s
speed of sound (450.05 K, 3497 kPa): 495.73 ± 1.8 m/s
speed of sound (450.09 K, 6009 kPa): 536.6 ± 1.6 m/s
speed of sound (450.14 K, 9983 kPa): 591.45 ± 1.4 m/s
speed of sound (450.22 K, 20246 kPa): 701.94 ± 1.2 m/s
speed of sound (498.94 K, 3487 kPa): 373.05 ± 2.5 m/s
speed of sound (498.96 K, 1989 kPa): 328.83 ± 3 m/s
speed of sound (499 K, 5834 kPa): 424.21 ± 1.9 m/s
speed of sound (499.02 K, 1521 kPa): 313.47 ± 3.4 m/s
speed of sound (499.02 K, 10178 kPa): 498.23 ± 1.5 m/s
speed of sound (499.04 K, 1000 kPa): 292.6 ± 3.8 m/s
speed of sound (499.05 K, 16859 kPa): 585.07 ± 1.4 m/s
speed of sound (549.67 K, 15312 kPa): 492.6 ± 1.5 m/s
speed of sound (549.74 K, 6653 kPa): 340.31 ± 2.3 m/s
speed of sound (549.79 K, 4484 kPa): 279.71 ± 2.9 m/s
speed of sound (549.8 K, 10050 kPa): 411.61 ± 1.9 m/s
speed of sound (549.84 K, 12528 kPa): 452.26 ± 1.6 m/s
